The values below come from patent publication US20250380701A1, “HERBICIDAL COMBINATIONS AND A METHOD FOR CONTROLLING UNDESIRED VEGETATION” (UPL Mauritius Limited, priority 2022, published 2025).

The test system of this test is weedy Glycine max. Description: Post-emergence herbicidal activity trial, efficacy on weedy Glycine max (Colby evaluation). The class given is in vivo. On the procedure: The following products were used for testing the weed control efficacy of present herbicidal combinations.
Methodology: Trials were carried out to evaluate the efficacy of the combination of L-glufosinate ammonium (glufosinate-P-ammonium) and the additional herbicides on weedy Glycine max.
The soil used was sandy clay loam-sand: 68.0%; silt: 8.0%; clay: 24.0%.
All treatments were in 3 replications per treatment with a spray volume of about 150 L/ha.
The expected efficacy of a combination of L-glufosinate and the other herbicides was calculated using the well-established Colby method. Any difference between the observed and “expected” efficacy could be attributed to synergy between the two compounds.
In the Colby method, the expected (or predicted) response of a combination of herbicides is calculated by taking the product of the observed response for each individual component of the combination when applied alone, divided by 100, and subtracting this value from the sum of the observed response for each component when applied alone. An unexpected enhancement in efficacy of the combination is then determined by comparing the observed response of the combination to the expected (or predicted) response as calculated from the observed response of each individual component alone. If the observed response of the combination is greater than the expected (or predicted) response, or stated conversely, if the difference between the observed and expected response is greater than zero, then the combination is said to be synergistic or unexpectedly effective (Colby, S. R., Weeds, 1967(15), p. 20-22). The Colby method requires only a single dose of each herbicide applied alone and the mixture of both doses. The formula used to calculate the expected efficacy (EE) which was compared with the observed efficacy (OE) to determine the efficacy of the present disclosure is explained hereinbelow:
The expected efficacy for a combination of two active ingredients is as follows:
wherein, • A=Observed efficacy of active ingredient A at the same concentration as used in the mixture. • B=Observed efficacy of the active ingredient B at the same concentration as used in the mixture. • C=Observed efficacy of the active ingredient C at the same concentration as used in the mixture.
Experiments were conducted to assess the efficacy of the herbicidal combination comprising L-glufosinate ammonium and quizalofop-ethyl to control weedy Glycine max.
The percentage efficacy was calculated after 3, 28 and 35 days of applications (DAA). The target weed was Glycine max, and the concentration of the herbicide and the results are recorded in Table 2.
Experiments were conducted to assess the efficacy of the herbicidal combination comprising L-glufosinate ammonium and quizalofop-p-tefuryl to control the weedy Glycine max
The percentage efficacy was calculated after 3, 28 and 35 days of applications (DAA). The target weed was weedy Glycine max, and the concentration of the herbicide and the results are recorded in Table 3.

Turning to `CCOC(=O)C(C)Oc1ccc(Oc2cnc3cc(Cl)ccc3n2)cc1` (stereo not drawn) [quizalofop-ethyl, Quizalofop-ethyl], the “Observed efficacy (%) of quizalofop-ethyl (25 g a.i./ha)” value came out at 0% (Example 1 (Table 2), 3 DAA); 0% (Example 1 (Table 2), 28 DAA); 0% (Example 1 (Table 2), 35 DAA).
Take `C[C@@H](Oc1ccc(Oc2cnc3cc(Cl)ccc3n2)cc1)C(=O)OCC1CCCO1` (stereo partly drawn) [quizalofop-p-tefuryl, Quizalofop-p-tefuryl]: the “Observed efficacy (%) of quizalofop-p-tefuryl (25 g a.i./ha)” value was determined as 0% (Example 2 (Table 3), 3 DAA); 0% (Example 2 (Table 3), 28 DAA); 0% (Example 2 (Table 3), 35 DAA).
With `CP(=O)(O)CC[C@H](N)C(=O)O.N` [L-glufosinate ammonium], the “Observed efficacy (%) of L-glufosinate ammonium (150 g a.i./ha)” value (“Observed efficacy (%) … (150 g a.i./ha)” for short) (Example 1 (Table 2), 3 DAA) amounted to 50%; the “Observed efficacy (%) … (150 g a.i./ha)” value (Example 1 (Table 2), 28 DAA) is recorded as 40%; the “Observed efficacy (%) … (150 g a.i./ha)” value (Example 1 (Table 2), 35 DAA) is listed as 40%; the “Observed efficacy (%) … (150 g a.i./ha)” value (Example 2 (Table 3), 3 DAA) turned out to be 50%; the “Observed efficacy (%) … (150 g a.i./ha)” value (Example 2 (Table 3), 28 DAA) was 60%; the “Observed efficacy (%) … (150 g a.i./ha)” value (Example 2 (Table 3), 35 DAA) worked out at 55%.
